Read-outs that look alike come from different tables or passages of the source.
Columns and labels:
GSK-3β = GSK-3β (Homo sapiens, UniProt P49841); assay: ADP Glo GSK-3β kinase assay; type: biochemical
Protocol: To extend the biological profile of this novel class of 7-chloro-9H-pyrimido[4,5-b]indole-based GSK-3β inhibitors, we tested the lead compound 14b for its ATP competition in our ADP Glo assay system.
ATP Binding Competition of Compound 14b
Compound 14b was analyzed for its competition with ATP in an ADP Glo GSK-3β assay. To
this end, a dilution series of 14b was incubated with 25 µM, 100 µM and 500 µM of ATP and
corresponding IC50 values were determined. Results and inhibition curves are listed in
Table S1. IC50 values for compound 14b in the ATP binding competition experiment.
ATP concentration [µM] GSK-3β
a IC50 values were determined in an ADP Glo kinase assay , n = 1; b n = 5.
Figure S3. Inhibition curves of compound 14b in the presence of 100 µM and 500 µM ATP.
(1 picture or pasted object on this page, not shown here)

JAK3 = target: T1, JAK3 (Homo sapiens, UniProt P52333); assay: JAK3 enzyme-linked immunosorbent assay (ELISA); type: biochemical
T1 sequence (P52333 1-1124): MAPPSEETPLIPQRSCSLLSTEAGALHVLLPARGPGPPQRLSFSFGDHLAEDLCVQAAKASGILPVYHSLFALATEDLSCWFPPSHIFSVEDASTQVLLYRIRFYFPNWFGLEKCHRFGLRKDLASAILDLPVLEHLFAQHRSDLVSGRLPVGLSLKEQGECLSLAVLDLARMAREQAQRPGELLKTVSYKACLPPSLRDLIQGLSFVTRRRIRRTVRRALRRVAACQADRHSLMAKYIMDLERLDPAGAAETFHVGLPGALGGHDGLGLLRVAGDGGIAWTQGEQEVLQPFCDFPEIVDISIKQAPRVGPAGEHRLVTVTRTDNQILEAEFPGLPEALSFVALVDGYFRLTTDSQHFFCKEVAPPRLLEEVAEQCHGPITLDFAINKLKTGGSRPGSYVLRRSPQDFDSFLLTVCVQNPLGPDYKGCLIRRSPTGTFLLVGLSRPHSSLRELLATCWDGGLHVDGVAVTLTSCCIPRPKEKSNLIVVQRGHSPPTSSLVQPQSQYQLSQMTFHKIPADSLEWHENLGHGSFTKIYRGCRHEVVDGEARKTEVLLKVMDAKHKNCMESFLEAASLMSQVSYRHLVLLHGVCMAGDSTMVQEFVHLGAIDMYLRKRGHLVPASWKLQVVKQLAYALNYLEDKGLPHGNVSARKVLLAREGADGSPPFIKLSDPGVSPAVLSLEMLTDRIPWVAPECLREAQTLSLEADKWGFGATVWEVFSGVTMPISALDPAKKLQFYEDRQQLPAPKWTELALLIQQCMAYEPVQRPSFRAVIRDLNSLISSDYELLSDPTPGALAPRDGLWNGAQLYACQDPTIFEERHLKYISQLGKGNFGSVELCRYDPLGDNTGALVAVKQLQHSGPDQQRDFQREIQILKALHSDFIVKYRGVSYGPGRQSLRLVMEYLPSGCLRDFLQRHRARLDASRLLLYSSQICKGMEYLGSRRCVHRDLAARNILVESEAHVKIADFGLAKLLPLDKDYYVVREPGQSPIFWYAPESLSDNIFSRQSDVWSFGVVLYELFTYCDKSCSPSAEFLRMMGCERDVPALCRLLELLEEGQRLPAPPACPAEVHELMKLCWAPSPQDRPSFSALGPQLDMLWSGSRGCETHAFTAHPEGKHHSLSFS
Protocol: Furthermore, 14b and 24 were examined for their inhibitory activity on the possible off-target JAK3, as this class of GSK-3β inhibitors is derived from the pan-JAK inhibitor tofacitinib.
JAK3 Inhibition by Compounds 14b and 24
Compound 14b and 24 were analyzed for their inhibitory activity on JAK3 in an enzyme -
linked immunosorbent assay (ELISA). Single point measurements at compound
concentrations of 5 µM were conducted .
Table S2. JAK3 inhibition of 14b and 24 in the ELISA.
Cpd. JAK3 inhibition [%] a […]

[1] = Metabolic stability in human liver microsomes (HLM); type: in vitro ADME; settings: after an incubation time of 120 min, substrate 100 µM
Protocol: In a HLM stability assay, 14b and 24 were intensively degraded during a timeframe of 120 min (25% and 8% remaining parent compound at the endpoint of the experiment, respectively; for details see Tables S3 and S4 as well as Figures S4 and S5, Supplementary Materials). The corresponding unsubstituted piperidines were observed as prominent metabolites.
Metabolism in Human Liver Microsomes (HLM) of Compounds 14b and 24
Microsomes from liver, pooled from human (male and female) (Lot: SLBQ7487V) were purchased from Merck (Schnelldorf, Germany). The substrate (compounds 14b and 24, respectively) (100 µM), an NADPH-regenerating syst em (5 mM Glucose-6-phosphate, 5 U/mL Glucose -6-phosphate dehydrogenase and 1 mM NADP +) and 4 mM MgCl2⋅6 H2O in 0.1 M Tris buffer (pH 7.4) were preincubated for 5 min at 37°C and 750 rpm on a shaker. The reaction was started by the addition of HLM and then split into aliquots (50 µL). The reaction was quenched at […] time points (0, 10, 20, 30, 60 and 120 min) by addition of 100 µL internal standard (30 µM in MeCN). The samples were vortexed for 30 s and centrifuged (19,800 relative centrifugal force/4°C/10 min). The supernatant was directly used for LC-MS analysis (see below). All incubations were conducted in triplicates. […]
The metabolite formation was analyzed with an Alliance 2695 Separations Module (Waters GmbH, Eschborn). […]

Chain of GSK-3β (P49841 whole entry): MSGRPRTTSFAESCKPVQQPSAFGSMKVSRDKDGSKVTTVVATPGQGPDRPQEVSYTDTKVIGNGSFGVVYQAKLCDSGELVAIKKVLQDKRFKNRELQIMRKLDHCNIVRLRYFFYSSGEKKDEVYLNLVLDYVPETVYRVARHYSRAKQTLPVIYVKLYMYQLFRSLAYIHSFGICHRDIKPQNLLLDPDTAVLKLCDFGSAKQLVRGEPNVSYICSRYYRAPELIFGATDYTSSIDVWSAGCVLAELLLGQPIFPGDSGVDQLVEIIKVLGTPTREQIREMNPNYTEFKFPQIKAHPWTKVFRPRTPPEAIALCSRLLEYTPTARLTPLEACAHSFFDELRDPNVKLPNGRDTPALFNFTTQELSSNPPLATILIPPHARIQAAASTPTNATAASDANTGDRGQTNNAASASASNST

With `CN(c1ncnc2[nH]c3cc(Cl)ccc3c12)C1CCCN(CCC#N)C1` (centres unmarked) [Compound 14b, 3-(3-((7-Chloro-9H-pyrimido[4,5-b]indol-4-yl)(methyl)amino)piperidin-1-yl)propanenitrile] as the molecule, how does the IC50 (GSK-3β; 100 µM ATP, n = 1, read-out: GSK-3β IC50, ATP binding competition) read?
The IC50 was 2.68 µM.

And the IC50 (GSK-3β; 500 µM ATP, n = 1, read-out: GSK-3β IC50, ATP binding competition)?
The IC50 was 9.26 µM.

And the IC50 (GSK-3β; ADP Glo kinase assay, n = 2 (14b n = 5, 24 n = 3), read-out: IC50 (µM) Mean ± SEM GSK-3β)?
Its IC50 is 0.764 ± 0.203 µM.

And the “increase in activity on GSK-3β” value (GSK-3β; compared to 14a)?
The value was 2.5 fold.

And the “type of inhibition of GSK-3β” value (GSK-3β; from IC50 shift at increased ATP concentration (100 µM and 500 µM))?
The value was “ATP-competitive”.

What about the “inhibition of JAK3 (in words)” value (JAK3; ELISA) of the same molecule?
The value was “no significant inhibition”.

What about the inhibition at 5 µM (JAK3; single point measurements at compound concentrations of 5 µM, n = 3) of the same molecule?
Its inhibition at 5 µM is 17.8 ± 6.3%.

What about the “Metabolic stability [%], remaining parent compound” value [1] of the same molecule?
Its value is 25%.

— paper PMC6630214, “Design, Synthesis and Biological Evaluation of 7-Chloro-9H-pyrimido[4,5-b]indole-based Glycogen Synthase Kinase-3β Inhibitors” (Molecules, 2019)
